Data from patent US5049550A, “Diadenosine 5', 5'"-p^1, p^4,-tetraphosphate analogs as antithrombotic agents” (Worcester Foundation for Experimental Biology, priority 1988, dated 1991).

How the values were obtained:
[1] = test system: ADP-induced platelet aggregation; test: Kinetics of ADP-induced platelet aggregation (double-reciprocal plot); type: cell-based; details: FIG. 6
Procedure: Changes in light transmission reflecting the velocity of ADP-induced platelet aggregability was determined using a platelet aggregometer. Born, G.V.P., Nature 184:927-929 (1962). […] The Y points on the X-intercept are altered by factors [formula] where I is the concentration of inhibitor, and Ki is a characteristic constant. Points on the X-intercept are given by the expression [formula] intercept when [I]=0. When [I] is known, the equation can be solved for Ki.

[2] = test system: rabbit platelet aggregation by ADP; test: ADP-induced aggregation of rabbit platelets; type: cell-based
Procedure: (§1) Rabbit carotid arterial blood was collected in 3.8% sodium citrate (9 volumes blood to 1 volume citrate). Platelet rich plasma (PRP) and platelet poor plasma (PPP) were prepared by centrifugation at 150 g and 1,000 g for 10 minutes respectively. Aggregation studies were performed in a Chrono-Log (Havertown, Pa.) aggregometer with ADP or collagen as aggregating agents. ADP (Sigma Chemical Co.) was used in a final concentration of 2×10^-5 M. Calf skin collagen (Sigma Chemical Co.) was used in a final concentration of 200 ug/ml.
The effect of AP4 A on rabbit platelet aggregation by ADP and collagen was tested. […] The anti-aggregatory effect of AP4 A was detected at a concentration of 2×10^-4 M (tenfold that of ADP) and increased in a dose-response pattern with increasing concentrations (FIG. 1).

[3] = test system: collagen-induced aggregation of platelets; test: Collagen-induced aggregation of platelets recovered from AP4 A-infused rabbits; type: in vivo, rabbit; details: 50 mg per kg over 2 hours; collagen 200 ug/ml (FIG. 4)
Procedure: After preliminary trials, a standard AP4 A infusion protocol was established as follows: A dose of AP4 A at 50 mg/kg was reconstituted in 10 ml of normal saline and infused by pump at a uniform rate over two hours. Control rabbits received 10 ml of saline alone. The intracarotid cannula was inserted, and the re-establishment of blood flow timed at 15 minutes into the infusion. Upon the completion of infusion at 2 hours, the intracarotid tubing was removed, and its contents flushed out into a petri dish. The presence of a clot or of liquid blood contents was noted.
as §1

Nc1ncnc2c1ncn2[C@@H]1O[C@H](COP(=O)(O)OP(=O)(O)OP(=O)(O)OP(=O)(O)OC[C@H]2O[C@@H](n3cnc4c(N)ncnc43)[C@H](O)[C@@H]2O)[C@@H](O)[C@H]1O [AP4 A, diadenosine 5',5'"-p^1,p^4 -tetraphosphate]
Ki ([1]; competitive inhibition of ADP-induced aggregation): 17.1 µM | type / relative strength of inhibition ([1]; double reciprocal plot): competitive inhibition | minimal effective concentration ([2]; Oryctolagus cuniculus, Platelet, ADP 2×10^-5 M (tenfold that of ADP), read-out: concentration at which the anti-aggregatory effect was detected): 200 µM | effect of addition during ADP aggregation ([2]; added during aggregation, ADP 2×10^-5 M): blunted the secondary wave response to ADP and caused the dispersion of aggregated platelets | inhibition of ADP-induced aggregation ([2]; same dose as tested with collagen): almost complete inhibition | effect on collagen-induced aggregation after AP4 A infusion [3]: little effect
